{"source": "patent US12281080B2", "about": "“Quinoline-based compounds and methods of inhibiting CDK8/19” (University of South Carolina, priority 2018, dated 2025)", "key": {"ACVR2A": {"target": "ACVR2A (Homo sapiens (Human), UniProt P27037)", "assay": "KINOMEscan scanMAX", "type": "binding", "conditions": "2000 nM; read-out: Percent Control"}, "ACVRL1": {"target": "ACVRL1 (Homo sapiens (Human), UniProt P37023)", "assay": "KINOMEscan scanMAX", "type": "binding", "conditions": "2000 nM; read-out: Percent Control"}, "ALK(C1156Y)": {"target": "ALK(C1156Y) (Homo sapiens (Human), UniProt Q9UM73, C1156Y)", "sequence (Q9UM73 19-1620 C1156Y)": "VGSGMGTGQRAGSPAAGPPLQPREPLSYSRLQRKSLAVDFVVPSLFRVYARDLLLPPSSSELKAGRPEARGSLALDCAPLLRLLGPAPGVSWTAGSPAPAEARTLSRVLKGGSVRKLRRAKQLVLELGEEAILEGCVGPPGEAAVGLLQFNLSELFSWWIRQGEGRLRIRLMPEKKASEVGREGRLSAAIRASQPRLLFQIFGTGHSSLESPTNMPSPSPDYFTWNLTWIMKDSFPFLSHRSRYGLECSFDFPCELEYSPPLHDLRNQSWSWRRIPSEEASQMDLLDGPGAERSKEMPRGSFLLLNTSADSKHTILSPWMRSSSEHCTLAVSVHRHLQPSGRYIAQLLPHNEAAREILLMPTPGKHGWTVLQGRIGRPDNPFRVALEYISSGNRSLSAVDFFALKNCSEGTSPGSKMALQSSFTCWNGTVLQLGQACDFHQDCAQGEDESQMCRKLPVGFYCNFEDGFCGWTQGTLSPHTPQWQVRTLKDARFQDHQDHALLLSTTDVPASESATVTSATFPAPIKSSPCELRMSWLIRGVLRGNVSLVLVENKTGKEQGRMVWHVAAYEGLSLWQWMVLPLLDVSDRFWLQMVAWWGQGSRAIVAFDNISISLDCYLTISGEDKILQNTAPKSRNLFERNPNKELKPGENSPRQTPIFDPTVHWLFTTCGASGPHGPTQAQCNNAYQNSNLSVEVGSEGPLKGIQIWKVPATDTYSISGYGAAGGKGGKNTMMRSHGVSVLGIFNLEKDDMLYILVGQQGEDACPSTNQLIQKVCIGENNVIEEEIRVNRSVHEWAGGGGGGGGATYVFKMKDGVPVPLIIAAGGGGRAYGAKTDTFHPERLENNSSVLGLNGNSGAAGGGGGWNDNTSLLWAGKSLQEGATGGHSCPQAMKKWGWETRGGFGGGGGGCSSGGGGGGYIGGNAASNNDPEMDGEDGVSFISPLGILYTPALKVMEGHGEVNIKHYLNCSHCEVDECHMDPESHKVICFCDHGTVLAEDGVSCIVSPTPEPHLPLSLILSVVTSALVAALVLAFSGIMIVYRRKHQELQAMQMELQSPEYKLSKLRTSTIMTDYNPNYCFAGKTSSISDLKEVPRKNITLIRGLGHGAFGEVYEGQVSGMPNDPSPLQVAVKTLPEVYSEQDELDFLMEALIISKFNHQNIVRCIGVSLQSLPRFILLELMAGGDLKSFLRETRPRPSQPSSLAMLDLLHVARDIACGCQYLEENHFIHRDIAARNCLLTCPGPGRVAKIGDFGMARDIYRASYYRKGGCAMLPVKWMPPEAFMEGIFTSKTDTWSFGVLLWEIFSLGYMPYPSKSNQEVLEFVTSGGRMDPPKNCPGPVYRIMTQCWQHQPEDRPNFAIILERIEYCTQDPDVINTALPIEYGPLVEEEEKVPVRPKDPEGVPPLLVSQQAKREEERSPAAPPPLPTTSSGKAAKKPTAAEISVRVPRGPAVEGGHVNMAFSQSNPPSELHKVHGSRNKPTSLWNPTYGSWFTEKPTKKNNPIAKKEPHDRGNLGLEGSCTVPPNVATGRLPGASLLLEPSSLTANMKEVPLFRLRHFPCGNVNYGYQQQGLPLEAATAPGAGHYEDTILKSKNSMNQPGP", "assay": "KINOMEscan scanMAX", "type": "binding", "conditions": "2000 nM; read-out: Percent Control"}, "BLK": {"target": "BLK (Homo sapiens (Human), UniProt P51451)", "assay": "KINOMEscan scanMAX", "type": "binding", "conditions": "2000 nM; read-out: Percent Control"}, "BMPR2": {"target": "BMPR2 (Homo sapiens (Human), UniProt Q13873)", "assay": "KINOMEscan scanMAX", "type": "binding", "conditions": "2000 nM; read-out: Percent Control"}, "CDC2L5 (CDK13)": {"target": "CDC2L5 (CDK13) (Homo sapiens (Human), UniProt Q14004)", "assay": "KINOMEscan scanMAX", "type": "binding", "conditions": "2000 nM; read-out: Percent Control"}, "EGFR": {"target": "EGFR (Homo sapiens (Human), UniProt P00533)", "assay": "KINOMEscan scanMAX", "type": "binding", "conditions": "2000 nM; read-out: Percent Control"}, "[1]": {"target": "EGFR(L747-E749del, A750P) (Homo sapiens (Human), UniProt P00533, A750P/DEL747-749)", "assay": "KINOMEscan scanMAX", "type": "binding", "conditions": "2000 nM; read-out: Percent Control"}, "EIF2AK1": {"target": "EIF2AK1 (Homo sapiens (Human), UniProt Q9BQI3)", "assay": "KINOMEscan scanMAX", "type": "binding", "conditions": "2000 nM; read-out: Percent Control"}, "ERBB2": {"target": "ERBB2 (Homo sapiens (Human), UniProt P04626)", "assay": "KINOMEscan scanMAX", "type": "binding", "conditions": "2000 nM; read-out: Percent Control"}, "FGFR1": {"target": "FGFR1 (Homo sapiens (Human), UniProt P11362)", "assay": "KINOMEscan scanMAX", "type": "binding", "conditions": "2000 nM; read-out: Percent Control"}, "FLT3(D835H)": {"target": "FLT3(D835H) (Homo sapiens (Human), UniProt P36888, D835H)", "assay": "KINOMEscan scanMAX", "type": "binding", "conditions": "2000 nM; read-out: Percent Control"}, "FRK": {"target": "FRK (Homo sapiens (Human), UniProt P42685)", "sequence (P42685 whole entry)": "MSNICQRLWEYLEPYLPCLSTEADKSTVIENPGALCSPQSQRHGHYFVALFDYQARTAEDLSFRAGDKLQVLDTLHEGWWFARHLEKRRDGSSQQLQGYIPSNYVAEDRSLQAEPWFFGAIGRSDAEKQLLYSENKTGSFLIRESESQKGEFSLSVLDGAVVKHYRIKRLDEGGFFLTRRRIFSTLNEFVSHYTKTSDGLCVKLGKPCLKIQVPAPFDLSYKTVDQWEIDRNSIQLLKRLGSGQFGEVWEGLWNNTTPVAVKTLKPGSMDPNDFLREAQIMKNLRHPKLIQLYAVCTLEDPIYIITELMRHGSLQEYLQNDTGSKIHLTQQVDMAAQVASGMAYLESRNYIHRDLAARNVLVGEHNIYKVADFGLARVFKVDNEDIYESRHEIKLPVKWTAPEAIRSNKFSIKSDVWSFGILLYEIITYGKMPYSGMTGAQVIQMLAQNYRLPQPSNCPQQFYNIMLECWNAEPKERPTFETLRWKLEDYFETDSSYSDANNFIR", "assay": "KINOMEscan scanMAX", "type": "binding", "conditions": "2000 nM; read-out: Percent Control"}, "GRK4": {"target": "GRK4 (Homo sapiens (Human), UniProt P32298)", "assay": "KINOMEscan scanMAX", "type": "binding", "conditions": "2000 nM; read-out: Percent Control"}, "HCK": {"target": "HCK (Homo sapiens (Human), UniProt P08631)", "assay": "KINOMEscan scanMAX", "type": "binding", "conditions": "2000 nM; read-out: Percent Control"}, "KIT(A829P)": {"target": "KIT(A829P) (Homo sapiens (Human), UniProt P10721, A829P)", "assay": "KINOMEscan scanMAX", "type": "binding", "conditions": "2000 nM; read-out: Percent Control"}, "LATS2": {"target": "LATS2 (Homo sapiens (Human), UniProt Q9NRM7)", "sequence (Q9NRM7 whole entry)": "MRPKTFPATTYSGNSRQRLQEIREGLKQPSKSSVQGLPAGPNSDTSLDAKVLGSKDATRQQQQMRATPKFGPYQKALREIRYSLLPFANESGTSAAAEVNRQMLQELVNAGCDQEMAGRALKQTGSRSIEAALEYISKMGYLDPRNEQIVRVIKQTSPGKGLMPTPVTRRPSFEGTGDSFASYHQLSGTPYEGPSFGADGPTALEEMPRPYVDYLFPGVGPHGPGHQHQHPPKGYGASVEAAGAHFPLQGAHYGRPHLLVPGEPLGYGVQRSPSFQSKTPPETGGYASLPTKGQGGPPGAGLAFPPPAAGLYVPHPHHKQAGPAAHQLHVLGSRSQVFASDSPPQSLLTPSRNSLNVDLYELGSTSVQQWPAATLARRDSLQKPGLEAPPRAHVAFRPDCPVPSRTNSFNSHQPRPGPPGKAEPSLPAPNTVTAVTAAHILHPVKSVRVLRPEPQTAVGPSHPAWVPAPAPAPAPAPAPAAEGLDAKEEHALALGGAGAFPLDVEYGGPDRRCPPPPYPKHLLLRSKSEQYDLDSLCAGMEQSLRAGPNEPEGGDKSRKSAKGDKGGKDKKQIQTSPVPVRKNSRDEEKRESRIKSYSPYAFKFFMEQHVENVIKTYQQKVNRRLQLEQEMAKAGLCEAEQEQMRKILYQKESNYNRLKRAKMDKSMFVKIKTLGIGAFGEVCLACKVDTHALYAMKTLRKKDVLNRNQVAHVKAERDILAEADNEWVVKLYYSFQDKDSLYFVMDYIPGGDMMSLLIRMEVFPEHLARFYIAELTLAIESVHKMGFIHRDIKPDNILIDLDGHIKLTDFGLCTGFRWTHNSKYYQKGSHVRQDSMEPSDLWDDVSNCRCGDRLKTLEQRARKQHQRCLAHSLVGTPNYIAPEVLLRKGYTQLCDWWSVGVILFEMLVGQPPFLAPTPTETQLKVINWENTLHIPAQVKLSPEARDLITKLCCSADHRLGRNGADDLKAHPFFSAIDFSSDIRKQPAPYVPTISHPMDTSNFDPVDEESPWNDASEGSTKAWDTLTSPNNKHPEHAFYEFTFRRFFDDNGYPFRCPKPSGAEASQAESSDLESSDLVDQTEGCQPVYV", "assay": "KINOMEscan scanMAX", "type": "binding", "conditions": "2000 nM; read-out: Percent Control"}, "MELK": {"target": "MELK (Homo sapiens (Human), UniProt Q14680)", "assay": "KINOMEscan scanMAX", "type": "binding", "conditions": "2000 nM; read-out: Percent Control"}, "NEK6": {"target": "NEK6 (Homo sapiens (Human), UniProt Q9HC98)", "assay": "KINOMEscan scanMAX", "type": "binding", "conditions": "2000 nM; read-out: Percent Control"}, "p38-delta (MAPK13)": {"target": "p38-delta (MAPK13) (Homo sapiens (Human), UniProt O15264)", "assay": "KINOMEscan scanMAX", "type": "binding", "conditions": "2000 nM; read-out: Percent Control"}, "PAK4": {"target": "PAK4 (Homo sapiens (Human), UniProt O96013)", "assay": "KINOMEscan scanMAX", "type": "binding", "conditions": "2000 nM; read-out: Percent Control"}, "PIK3CA(H1047L)": {"target": "PIK3CA(H1047L) (Homo sapiens (Human), UniProt P42336, H1047L)", "assay": "KINOMEscan scanMAX", "type": "binding", "conditions": "2000 nM; read-out: Percent Control"}, "PIK3CB": {"target": "PIK3CB (Homo sapiens (Human), UniProt P42338)", "sequence (P42338 whole entry)": "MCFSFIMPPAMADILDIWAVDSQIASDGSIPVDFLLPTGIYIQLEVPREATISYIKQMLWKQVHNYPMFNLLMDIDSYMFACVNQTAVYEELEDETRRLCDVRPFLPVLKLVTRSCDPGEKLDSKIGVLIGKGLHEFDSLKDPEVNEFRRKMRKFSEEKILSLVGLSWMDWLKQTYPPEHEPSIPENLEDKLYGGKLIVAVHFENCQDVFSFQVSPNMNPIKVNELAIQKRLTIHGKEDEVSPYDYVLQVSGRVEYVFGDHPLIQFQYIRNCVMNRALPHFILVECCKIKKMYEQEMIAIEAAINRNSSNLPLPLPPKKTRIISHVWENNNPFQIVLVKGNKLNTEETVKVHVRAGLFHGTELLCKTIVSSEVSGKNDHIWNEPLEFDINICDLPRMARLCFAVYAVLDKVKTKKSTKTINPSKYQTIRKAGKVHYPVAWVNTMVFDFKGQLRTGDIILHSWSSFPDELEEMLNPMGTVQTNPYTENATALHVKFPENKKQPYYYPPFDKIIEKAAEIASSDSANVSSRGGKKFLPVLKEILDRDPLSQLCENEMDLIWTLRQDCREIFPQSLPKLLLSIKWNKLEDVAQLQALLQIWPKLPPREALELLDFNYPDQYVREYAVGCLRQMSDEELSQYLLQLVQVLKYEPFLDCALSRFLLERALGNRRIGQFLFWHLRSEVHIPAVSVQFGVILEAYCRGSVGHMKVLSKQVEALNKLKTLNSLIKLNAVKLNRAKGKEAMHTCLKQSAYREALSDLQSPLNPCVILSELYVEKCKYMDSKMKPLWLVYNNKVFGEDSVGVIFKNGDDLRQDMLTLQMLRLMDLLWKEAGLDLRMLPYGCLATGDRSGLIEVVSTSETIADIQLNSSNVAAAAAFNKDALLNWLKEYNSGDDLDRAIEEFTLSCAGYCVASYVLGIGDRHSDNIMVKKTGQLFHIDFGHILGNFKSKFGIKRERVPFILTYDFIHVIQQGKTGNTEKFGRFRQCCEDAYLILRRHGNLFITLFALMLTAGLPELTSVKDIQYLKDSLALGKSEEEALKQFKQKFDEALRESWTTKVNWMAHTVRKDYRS", "assay": "KINOMEscan scanMAX", "type": "binding", "conditions": "2000 nM; read-out: Percent Control"}, "PIK3CG": {"target": "PIK3CG (Homo sapiens (Human), UniProt P48736)", "assay": "KINOMEscan scanMAX", "type": "binding", "conditions": "2000 nM; read-out: Percent Control"}, "PKAC-beta (PRKACB)": {"target": "PKAC-beta (PRKACB) (Homo sapiens (Human), UniProt P22694)", "assay": "KINOMEscan scanMAX", "type": "binding", "conditions": "2000 nM; read-out: Percent Control"}, "PLK4": {"target": "PLK4 (Homo sapiens (Human), UniProt O00444)", "assay": "KINOMEscan scanMAX", "type": "binding", "conditions": "2000 nM; read-out: Percent Control"}, "PRKG1": {"target": "PRKG1 (Homo sapiens (Human), UniProt Q13976)", "assay": "KINOMEscan scanMAX", "type": "binding", "conditions": "2000 nM; read-out: Percent Control"}, "[2]": {"target": "RPS6KA4(Kin.Dom.1-N-terminal) (Homo sapiens (Human), UniProt O75676)", "assay": "KINOMEscan scanMAX", "type": "binding", "conditions": "2000 nM; read-out: Percent Control"}, "[3]": {"target": "RSK3(Kin.Dom.1-N-terminal) (RPS6KA2) (Homo sapiens (Human), UniProt Q15349)", "sequence (Q15349 59-318)": "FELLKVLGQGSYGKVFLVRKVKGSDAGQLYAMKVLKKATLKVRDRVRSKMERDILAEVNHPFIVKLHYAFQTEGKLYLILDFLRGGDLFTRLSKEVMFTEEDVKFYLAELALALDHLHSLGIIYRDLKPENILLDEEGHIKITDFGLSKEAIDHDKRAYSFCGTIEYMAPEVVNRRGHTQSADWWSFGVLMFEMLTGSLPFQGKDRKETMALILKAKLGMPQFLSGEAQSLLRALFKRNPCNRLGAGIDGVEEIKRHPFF", "assay": "KINOMEscan scanMAX", "type": "binding", "conditions": "2000 nM; read-out: Percent Control"}, "SRPK3": {"target": "SRPK3 (Homo sapiens (Human), UniProt Q9UPE1)", "sequence (Q9UPE1 whole entry)": "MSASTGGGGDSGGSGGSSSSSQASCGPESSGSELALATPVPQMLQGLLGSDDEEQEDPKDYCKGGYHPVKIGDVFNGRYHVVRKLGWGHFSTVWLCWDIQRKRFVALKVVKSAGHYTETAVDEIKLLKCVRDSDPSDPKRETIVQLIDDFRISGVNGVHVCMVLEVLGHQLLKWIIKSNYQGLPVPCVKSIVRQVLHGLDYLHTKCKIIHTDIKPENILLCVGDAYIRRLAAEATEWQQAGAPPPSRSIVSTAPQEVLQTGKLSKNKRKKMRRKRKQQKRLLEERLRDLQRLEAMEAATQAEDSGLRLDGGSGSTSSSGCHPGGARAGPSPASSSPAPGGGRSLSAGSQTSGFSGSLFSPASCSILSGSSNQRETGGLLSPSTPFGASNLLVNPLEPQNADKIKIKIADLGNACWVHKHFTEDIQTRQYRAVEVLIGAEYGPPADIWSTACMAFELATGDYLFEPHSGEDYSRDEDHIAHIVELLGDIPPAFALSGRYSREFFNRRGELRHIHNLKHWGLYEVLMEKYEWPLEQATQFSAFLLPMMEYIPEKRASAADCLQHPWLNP", "assay": "KINOMEscan scanMAX", "type": "binding", "conditions": "2000 nM; read-out: Percent Control"}, "TAOK1": {"target": "TAOK1 (Homo sapiens (Human), UniProt Q7L7X3)", "assay": "KINOMEscan scanMAX", "type": "binding", "conditions": "2000 nM; read-out: Percent Control"}, "TYRO3": {"target": "TYRO3 (Homo sapiens (Human), UniProt Q06418)", "assay": "KINOMEscan scanMAX", "type": "binding", "conditions": "2000 nM; read-out: Percent Control"}, "ULK1": {"target": "ULK1 (Homo sapiens (Human), UniProt O75385)", "assay": "KINOMEscan scanMAX", "type": "binding", "conditions": "2000 nM; read-out: Percent Control"}, "YSK4 (MAP3K19)": {"target": "YSK4 (MAP3K19) (Homo sapiens (Human), UniProt Q56UN5)", "assay": "KINOMEscan scanMAX", "type": "binding", "conditions": "2000 nM; read-out: Percent Control"}, "[4]": {"assay": "Mouse pharmacokinetics, oral, serum", "type": "in vivo, mice", "description": "To measure pharmacokinetics (PK), Senexin C dissolved in 5% Dextrose was administered orally (p.o.) to female FVB mice at 30 mg/kg. Blood samples were collected at different time points (5 mice per time point) and Senexin C concentration in the serum was measured by LC/MS/MS."}, "[5]": {"target": "CDK8 in complex with Cyclin C (Homo sapiens (Human), UniProt P49336)", "assay": "LanthaScreen Eu Kinase Binding Assay", "excerpt": "The binding of the tracer to the kinase is detected using a europium-labeled anti-tag antibody, which binds to the kinase of interest. […] The binding of an inhibitor to the kinase competes for binding with the tracer, resulting in a loss of FRET."}}, "data": [{"smiles": "CN1CCN(C(=O)c2ccc3cc(CCNc4ccnc5ccc(C#N)cc45)ccc3c2)CC1", "note": "[compound 6148, 4-((2-(6-(4-methylpiperazine-1-carbonyl)naphthalen-2-yl)ethyl)amino)quinoline-6-carbonitrile]", "values": [{"measurement": "remaining binding at 2 µM", "setting": "ACVR2A", "value": 89, "unit": "%"}, {"measurement": "remaining binding at 2 µM", "setting": "ACVRL1", "value": 93, "unit": "%"}, {"measurement": "remaining binding at 2 µM", "setting": "ALK(C1156Y)", "value": 83, "unit": "%"}, {"measurement": "remaining binding at 2 µM", "setting": "BLK", "value": 100, "unit": "%"}, {"measurement": "remaining binding at 2 µM", "setting": "BMPR2", "value": 66, "unit": "%"}, {"measurement": "remaining binding at 2 µM", "setting": "CDC2L5 (CDK13)", "value": 64, "unit": "%"}, {"measurement": "remaining binding at 2 µM", "setting": "EGFR", "value": 91, "unit": "%"}, {"measurement": "remaining binding at 2 µM", "setting": "[1]", "value": 77, "unit": "%"}, {"measurement": "remaining binding at 2 µM", "setting": "EIF2AK1", "value": 84, "unit": "%"}, {"measurement": "remaining binding at 2 µM", "setting": "ERBB2", "value": 73, "unit": "%"}, {"measurement": "remaining binding at 2 µM", "setting": "FGFR1", "value": 85, "unit": "%"}, {"measurement": "remaining binding at 2 µM", "setting": "FLT3(D835H)", "value": 88, "unit": "%"}, {"measurement": "remaining binding at 2 µM", "setting": "FRK", "value": 92, "unit": "%"}, {"measurement": "remaining binding at 2 µM", "setting": "GRK4", "value": 100, "unit": "%"}, {"measurement": "remaining binding at 2 µM", "setting": "HCK", "value": 96, "unit": "%"}, {"measurement": "remaining binding at 2 µM", "setting": "KIT(A829P)", "value": 82, "unit": "%"}, {"measurement": "remaining binding at 2 µM", "setting": "LATS2", "value": 88, "unit": "%"}, {"measurement": "remaining binding at 2 µM", "setting": "MELK", "value": 97, "unit": "%"}, {"measurement": "remaining binding at 2 µM", "setting": "NEK6", "value": 93, "unit": "%"}, {"measurement": "remaining binding at 2 µM", "setting": "p38-delta (MAPK13)", "value": 97, "unit": "%"}, {"measurement": "remaining binding at 2 µM", "setting": "PAK4", "value": 97, "unit": "%"}, {"measurement": "remaining binding at 2 µM", "setting": "PIK3CA(H1047L)", "value": 84, "unit": "%"}, {"measurement": "remaining binding at 2 µM", "setting": "PIK3CB", "value": 64, "unit": "%"}, {"measurement": "remaining binding at 2 µM", "setting": "PIK3CG", "value": 76, "unit": "%"}, {"measurement": "remaining binding at 2 µM", "setting": "PKAC-beta (PRKACB)", "value": 100, "unit": "%"}, {"measurement": "remaining binding at 2 µM", "setting": "PLK4", "value": 90, "unit": "%"}, {"measurement": "remaining binding at 2 µM", "setting": "PRKG1", "value": 100, "unit": "%"}, {"measurement": "remaining binding at 2 µM", "setting": "[2]", "value": 100, "unit": "%"}, {"measurement": "remaining binding at 2 µM", "setting": "[3]", "value": 100, "unit": "%"}, {"measurement": "remaining binding at 2 µM", "setting": "SRPK3", "value": 96, "unit": "%"}, {"measurement": "remaining binding at 2 µM", "setting": "TAOK1", "value": 76, "unit": "%"}, {"measurement": "remaining binding at 2 µM", "setting": "TYRO3", "value": 77, "unit": "%"}, {"measurement": "remaining binding at 2 µM", "setting": "ULK1", "value": 66, "unit": "%"}, {"measurement": "remaining binding at 2 µM", "setting": "YSK4 (MAP3K19)", "value": 50, "unit": "%"}, {"measurement": "Increase of half-time, oral vs i.p.", "setting": "[4]; female, FVB, mouse, in vivo", "value": "4-5 times"}, {"measurement": "half-time", "setting": "[4]; p.o. 30 mg/kg, female FVB mice", "value": 3.8, "unit": "h"}, {"measurement": "IC50", "setting": "[5]", "value": 3.8, "unit": "nM"}]}]}
